Measurements published in article PMC12301034, “Design and Synthesis of Boronic Chalcones with Dual Anticancer and Anti-Inflammatory Activity” (Molecules, 2025).

System: SCC-25 cells
Assay: MTT cytotoxicity assay on SCC-25 cells
Type: cell-based, human
Conditions: Homo sapiens, SCC-25; MTT, 24 h incubation, mean SEM of three experiments
Description: The SCC-25 (ATCC® CRL-1628™), Detroit-562 (ATCC® CCL-138™), and THP-1 (ATCC® TIB-202™) cells were purchased from Rio de Janeiro Cell Bank (Duque de Caxias, Brazil), and NOK-si was kindly provided by Prof. Carlos Rossa from the School of Dentistry—UNESP. All the cells were cultivated according to standard conditions. Human colorectal adenocarcinoma HCT116 cell lines (ATCC® CCL-247™) expressing p53 and its p53-null isogenic derivative (HCT116 p53^−/−) were provided by B. Vogelstein (The Johns Hopkins Kimmel Cancer Center, Baltimore, MD, USA).
Cells (NOK-si, SCC-25, and Detroit-562) were grown in a DMEM medium (Dulbecco’s Modified Eagle Medium), supplemented according to the needs of each lineage, as recommended by its cell banks, with 2 mM L-glutamine, 10% or 20% fetal bovine serum (FBS), 1% antibiotic–antimycotic solution (5 mg/mL penicillin, 5 mg/mL streptomycin, and 10 mg/mL neomycin), 4.5 g/L of glucose, and 3.7 g/L of sodium bicarbonate (NaHCO3). All cell lines were cultured in flasks at 37 °C in 5% carbon dioxide (CO2) and 95% of relative humidity. The assays were conducted between the third- and the seventh-cell passage, with sub-cultures every 3–4 days to maintain exponential growth. The cell viability was checked using the trypan blue dye exclusion assay for all experiments, where over 95% of the cells were viable at the beginning of the tests. NOK-si, SCC-25, and Detroit-562 were initially thawed and cultured in 25 cm^2 cell culture flasks. Cell growth was monitored using a microscope, and the culture medium was changed periodically. Upon reaching confluency, cell dissociation was achieved by adding 5 mL of trypsin (Sigma-Aldrich, St Louis, MO, USA) and incubating the bottles in a CO2 incubator for 10 min. Subsequently, the cells were transferred to 15 mL Falcon tubes and centrifuged at 2000 rpm for 10 min. Cell counting was performed using a Countess II FL automated cell counter (ThermoFischer, Waltham, MA, USA). The cells were seeded at a density of 30,000 cells per well in 96-well plates. The plates were then incubated at 37 °C in 5% CO2 for 24 h. Following this, test compounds were incubated for another 24 h at 10 different concentrations: 50, 25, 12.5, 6.25, 3.12, 1.56, 0.78, 0.39, 0.19, and 0.097 µg/mL. After the specified time, MTT reagent (3 mg/mL) (Sigma-Aldrich, St Louis, MO, USA) dissolved in phenol-free RPMI 1640 was added and incubated for 4 h. The formed MTT crystals were solubilized using 2-propanol P.A. (Sigma-Aldrich, St Louis, MO, USA) with agitation. Absorbance was read at 562 nm using an EZ Read 400 microplate reader (Biochrom, Cambridge, UK) and ADAP 2.0 Biochrom software (version 2.0). IC50 values and graphs were calculated using Excel and Prism software (version 10.4.1). The MTT assay results were evaluated for normality using the Shapiro–Wilk test, followed by one-way ANOVA with Tukey’s post hoc test at a significance level of 5%.

## COc1cccc(C(=O)/C=C/c2cccc(B(O)O)c2)c1 [Compound 5, (E)-(3-(3-(3-methoxyphenyl)-3-oxoprop-1-en-1-yl)phenyl)boronic acid]
  IC50: 17.9 ± 0.35 µM
